Assay results published in US6506772B1, “Substituted [1,2,4]triazolo[1,5a]pyridine derivatives with activity as adenosine receptor ligands” (Hoffmann-La Roche Inc., priority 2000, dated 2003).
pKi: −log10 of the molar value.

Assays:
[1] = molecular target: T1, human adenosine A2A receptor (Homo sapiens, UniProt P29274); assay: Human adenosine A2A receptor [3H]-SCH-58261 binding assay; details: for pKi: affinity to human adenosine A2A receptor, read-out: Ki HA2A; for selectivity (A1/A2a): calculated ratio of the affinity to the HA1 receptor to the HA2a receptor
T1 construct: expressed in transfected cells; host or cells: CHO cells, Semliki Forest virus expression system; membrane preparation
T1 sequence (P29274 whole entry): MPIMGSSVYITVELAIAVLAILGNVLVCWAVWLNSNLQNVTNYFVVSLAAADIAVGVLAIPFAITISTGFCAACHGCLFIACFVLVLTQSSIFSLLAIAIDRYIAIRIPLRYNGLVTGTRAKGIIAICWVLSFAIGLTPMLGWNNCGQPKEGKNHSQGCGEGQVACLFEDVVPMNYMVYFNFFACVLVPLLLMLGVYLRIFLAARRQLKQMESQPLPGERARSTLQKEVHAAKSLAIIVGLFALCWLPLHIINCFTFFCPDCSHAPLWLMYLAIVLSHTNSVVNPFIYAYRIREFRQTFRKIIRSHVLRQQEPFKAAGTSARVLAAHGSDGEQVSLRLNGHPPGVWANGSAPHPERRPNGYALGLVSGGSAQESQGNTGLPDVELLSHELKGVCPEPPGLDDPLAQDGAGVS

HA1 adenosine receptor = molecular target: T2, HA1 adenosine receptor (Homo sapiens, UniProt P30542); assay: Human adenosine A1 receptor affinity (Ki hA1); type: binding; details: affinity to human adenosine A1 receptor
T2 sequence (P30542 1-326): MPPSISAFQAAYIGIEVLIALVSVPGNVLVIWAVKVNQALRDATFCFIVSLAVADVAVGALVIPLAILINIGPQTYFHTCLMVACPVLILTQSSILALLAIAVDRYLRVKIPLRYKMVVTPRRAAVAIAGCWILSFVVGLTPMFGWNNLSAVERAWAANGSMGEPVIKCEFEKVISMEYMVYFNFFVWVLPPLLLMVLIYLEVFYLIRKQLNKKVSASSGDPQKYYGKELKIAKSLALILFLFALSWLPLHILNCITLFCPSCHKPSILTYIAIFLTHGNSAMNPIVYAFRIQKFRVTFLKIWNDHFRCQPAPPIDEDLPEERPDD

| SMILES | pKi [1] | selectivity (A1/A2a) [1] | pKi (HA1 adenosine receptor) |
| --- | --- | --- | --- |
| CCN(C(=O)c1cc(N)n2nc(-c3ccc(Cl)o3)nc2c1)C1CCCCC1 [Example 243, 5-Amino-2-(5-chloro-furan-2-yl)-[1,2,4]triazolo[1,5-a]pyridine-7-carboxylic acid cyclohexyl-ethyl-amide] | 8.48 | 28.6 | 7.02 |
| Nc1cc(C(=O)NCc2ccc(Cl)cc2)cc2nc(-c3ccc(Cl)o3)nn12 [Example 244, 5-Amino-2-(5-chloro-furan-2-yl)-[1,2,4]triazolo[1,5-a]pyridine-7-carboxylic acid 4-chloro-benzylamide] | 6.66 | 0.9 | 6.72 |
| Nc1cc(C(=O)NCc2ccc(F)cc2)cc2nc(-c3ccc(Cl)o3)nn12 [Example 245, 5-Amino-2-(5-chloro-furan-2-yl)-[1,2,4]triazolo[1,5-a]pyridine-7-carboxylic acid 4-fluoro-benzylamide] | 6.81 | 1.9 | 6.54 |
| COc1ccccc1CNC(=O)c1cc(N)n2nc(-c3ccc(Cl)o3)nc2c1 [Example 246, 5-Amino-2-(5-chloro-furan-2-yl)-[1,2,4]triazolo[1,5-a]pyridine-7-carboxylic acid 2-methoxy-benzylamide] | 7.62 | 3.0 | 7.14 |
| CN(CC1CC1)C(=O)c1cc(N)n2nc(-c3ccc(Cl)o3)nc2c1 [Example 247, 5-Amino-2-(5-chloro-furan-2-yl)-[1,2,4]triazolo[1,5-a]pyridine-7-carboxylic acid cyclopropylmethyl-methyl-amide] | 8.04 | 17.6 | 6.79 |
| CN(C)C(=O)c1cc(N)n2nc(-c3ccc(Cl)o3)nc2c1 [Example 248, 5-Amino-2-(5-chloro-furan-2-yl)-[1,2,4]triazolo[1,5-a]pyridine-7-carboxylic acid dimethylamide] | 7.35 | 13.6 | 6.22 |
| Nc1cc(C(=O)N2CCC2)cc2nc(-c3ccc(Cl)o3)nn12 [Example 249, [5-Amino-2-(5-chloro-furan-2-yl)-[1,2,4]triazolo[1,5-a]pyridin-7-yl]-azetidin-1-yl-methanone] | 5.68 | 3.0 | 5.21 |
| CCN(C)C(=O)c1cc(N)n2nc(-c3ccc(Cl)o3)nc2c1 [Example 250, 5-Amino-2-(5-chloro-furan-2-yl)-[1,2,4]triazolo[1,5-a]pyridine-7-carboxylic acid ethyl-methyl-amide] | 7.72 | 24.0 | 6.34 |
| C=CCN(C)C(=O)c1cc(N)n2nc(-c3ccc(Cl)o3)nc2c1 [Example 251, 5-Amino-2-(5-chloro-furan-2-yl)-[1,2,4]triazolo[1,5-a]pyridine-7-carboxylic acid allyl-methyl-amide] | 7.83 | 24.5 | 6.44 |
| CCCN(C)C(=O)c1cc(N)n2nc(-c3ccc(Cl)o3)nc2c1 [Example 252, 5-Amino-2-(5-chloro-furan-2-yl)-[1,2,4]triazolo[1,5-a]pyridine-7-carboxylic acid methyl-propyl-amide] | 7.81 | 28.3 | 6.36 |
| Nc1cc(C(=O)N2CC=CCC2)cc2nc(-c3ccc(Cl)o3)nn12 [Example 253] | 8.02 | 28.9 | 6.56 |
| CC1CCCN1C(=O)c1cc(N)n2nc(-c3ccc(Cl)o3)nc2c1 (stereo not drawn) [Example 254, [5-Amino-2-(5-chloro-furan-2-yl)-[1,2,4]triazolo[1,5-a]pyridin-7-yl]-(2-methyl-pyrrolidin-1-yl)-methanone] | 7.95 | 44.8 | 6.30 |
| CCN(C(=O)c1cc(N)n2nc(-c3ccc(Cl)o3)nc2c1)C(C)C [Example 255, 5-Amino-2-(5-chloro-furan-2-yl)-[1,2,4]triazolo[1,5-a]pyridine-7-carboxylic acid ethyl-isopropyl-amide] | 8.49 | 28.9 | 7.03 |
